Data from paper PMC9804084, “Multiple drug transporters contribute to the brain transfer of levofloxacin” (CNS Neuroscience & Therapeutics, 2022).
Where two headings read alike, the source gives them in different places.

Test: In vivo microdialysis pharmacokinetics of LVFX without transporter inhibitors
Design: species or system rat
Settings: for AUC(0-inf) / Cmax / AUC(0-t) / Tmax / Kp / MRT / half-life: rat; for AUC(0-inf) / Cmax / AUC(0-t) / Tmax / MRT / half-life: iv; for AUC(0-inf) / Cmax / AUC(0-t) / MRT / half-life: 50 mg/kg, mean ± SD; for AUC(0-t): read-out: AUC0–180 (converted); for Kp: intravenous, LVFX 50 mg/kg tail vein, no inhibitor
Procedure: On the day of surgery, rats were anesthetized using inhaled isoflurane via a facemask. The rats were placed in a stereotaxic frame (Gene&I), and the body temperature was maintained with a homoeothermic blanket set at 37°C. A midline incision was made to expose the skull. According to the Paxinos and Watson atlas, two microdialysis intracerebral guide cannulae (Eicom Co.) were implanted into the hippocampus CA1 region (Hp‐CA1 coordinates: AP −4.16 mm; ML −2.2 mm; DV −2.9 mm) and lateral ventricle (LV coordinates: AP −1.4 mm; ML +2.2 mm; DV −3.4 mm). Fixed to the skull using a screw and dental cement. After 3 days of recovery, the rats were anesthetized with isoflurane again. An intravascular probe (TP‐100‐20; 20 mm, Eicom Co.) was implanted into the jugular vein toward the right atrium. After the blood microdialysis probe was positioned within the jugular vein, the pipeline was connected to perfuse with ACD solution (citric acid 3.5 mM; sodium citrate 7.5 mM; dextrose 13.6 mM) at a flow rate of […], and the Hamilton microinjection pump was used for continuous perfusion. After stopping isoflurane inhalation, the rats were allowed to wake up naturally on the homoeothermic blanket. The awake rats were placed in a device that allowed them to move freely. Animals were allowed to recover for an additional 24 h.
All microdialysate concentrations (C m) from the hippocampal ECF and lateral ventricle CSF were converted to the unbound drug concentration (C u) at the target site using the following formula: C u = C m/R dial.
A total of 32 rats were randomly divided into the following groups: • Control group, N = 12: vehicle solution + LVFX (50 mg/kg). • TAR group, N = 5: Tariquidar (8 mg/kg) + LVFX (50 mg/kg). • Ko143 group, N = 5: Ko143 (15 mg/kg) + LVFX (50 mg/kg). • MK571 group, N = 5: MK571 (20 mg/kg) + LVFX (50 mg/kg). • PRO group, N = 5: Probenecid (50 mg/kg) + LVFX (50 mg/kg).
Given that the solvents of intervention drugs were different, the control group was subdivided into four subgroups (n = 3). According to the preparation method of the transporter regulator, an equal volume of solvent was used as the control.
Levofloxacin was freshly dissolved in isotonic saline and administered via tail vein injection. Thirty minutes before LVFX administration, the intervention drugs of each group were injected intraperitoneally. To reduce the possible effect of solvents on BBB or BCSFB permeability of LVFX, we prioritized water as the solvent. However, Tariquidar and Ko143 are insoluble in water, and a cosolvent must be used to prepare agents that animals can tolerate. According to the different physicochemical properties of these four inhibitors, the preparation of each transporter inhibitor solution in this experiment was as follows. • P‐glycoprotein (P‐gp) inhibitor Tariquidar[22]: Tariquidar was freshly dissolved in DMSO to 8 mg/ml and then diluted to 4 mg/ml with a solution containing 10% Tween‐80, 25% PEG300, and 65% sterile water. • Breast cancer resistance protein (BCRP) inhibitor Ko143[23]: Ko143 was freshly dissolved in DMSO to 15 mg/ml and then diluted to 7.5 mg/ml with a solution containing 10% Tween‐80, 25% PEG300, and 65% sterile water. • Multidrug resistance‐associated proteins (MRPs) inhibitor MK571[24]: MK571 sodium salt hydrate was dissolved in 1.25% (w/v) aq sodium hydrogen carbonate (NaHCO3) solution to obtain a concentration of 10 mg/ml. • Organic anion transporters (OATs) inhibitor probenecid[25]: Probenecid was dissolved in NaOH (pH = 9.0–9.2) alkalized physiological saline to obtain a concentration of 25 mg/ml.
The pipelines where the blood and brain probes were installed were perfused at the speed of 2 μl/min with ACD solution and ACSF, respectively. Two brain probes were inserted into guide cannulas of the target site and allowed to equilibrate for 1 h. Subsequently, the rats were treated according to their corresponding groups in the device where they could move freely.

[1] = CSF (lateral ventricle microdialysate), CSF, Group 1: vehicle solution of Tariquidar/Ko143 + LVFX 50 mg/kg, n=3
[2] = CSF (lateral ventricle microdialysate), CSF, Group 2: 1.25% NaHCO3 solution + LVFX 50 mg/kg, n=3
[3] = CSF (lateral ventricle microdialysate), CSF, Group 4: LVFX 50 mg/kg alone, n=3
[4] = CSF (lateral ventricle microdialysate), pH 9, CSF, Group 3: physiological saline alkalinized with NaOH (pH 9.0–9.2) + LVFX 50 mg/kg, n=3
[5] = CSF, CSF, Group 1: vehicle solution of Tariquidar/Ko143 + LVFX 50 mg/kg, n=3
[6] = CSF, CSF, Group 2: 1.25% NaHCO3 solution + LVFX 50 mg/kg, n=3
[7] = CSF, CSF, Group 4: LVFX 50 mg/kg alone, n=3
[8] = CSF, pH 9, CSF, Group 3: physiological saline alkalinized with NaOH (pH 9.0–9.2) + LVFX 50 mg/kg, n=3
[9] = blood (microdialysate, unbound), blood, Group 1: vehicle solution of Tariquidar/Ko143 + LVFX 50 mg/kg, n=3
[10] = blood (microdialysate, unbound), blood, Group 2: 1.25% NaHCO3 solution + LVFX 50 mg/kg, n=3
[11] = blood (microdialysate, unbound), blood, Group 4: LVFX 50 mg/kg alone, n=3
[12] = blood (microdialysate, unbound), pH 9, blood, Group 3: physiological saline alkalinized with NaOH (pH 9.0–9.2) + LVFX 50 mg/kg, n=3
[13] = blood, blood, control group, vehicle + LVFX 50 mg/kg tail vein, N=12
[14] = brain ECF, brain ECF, Group 1: vehicle solution of Tariquidar/Ko143 + LVFX 50 mg/kg, n=3
[15] = brain ECF, brain ECF, Group 2: 1.25% NaHCO3 solution + LVFX 50 mg/kg, n=3
[16] = brain ECF, brain ECF, Group 4: LVFX 50 mg/kg alone, n=3
[17] = brain ECF, pH 9, brain ECF, Group 3: physiological saline alkalinized with NaOH (pH 9.0–9.2) + LVFX 50 mg/kg, n=3
[18] = hippocampal brain ECF (microdialysate, unbound), hippocampal brain ECF, control group, vehicle + LVFX 50 mg/kg tail vein, N=12
[19] = lateral ventricle CSF (microdialysate, unbound), lateral ventricle CSF, control group, vehicle + LVFX 50 mg/kg tail vein, N=12

C[C@H]1COc2c(N3CCN(C)CC3)c(F)cc3c(=O)c(C(=O)O)cn1c23 [LVFX, Levofloxacin]
T max (CSF, Group 2: 1.25% NaHCO3 solution + LVFX 50 mg/kg, n=3): 15 min | T max (CSF, Group 4: LVFX 50 mg/kg alone, n=3): 15 min | T max (blood, Group 2: 1.25% NaHCO3 solution + LVFX 50 mg/kg, n=3): 15 min | T max (blood, control group, vehicle + LVFX 50 mg/kg tail vein, N=12): 15 min | T max (brain ECF, Group 2: 1.25% NaHCO3 solution + LVFX 50 mg/kg, n=3): 15 min | T max (brain ECF, Group 4: LVFX 50 mg/kg alone, n=3): 15 min | AUC(0-inf) [1]: 4080 ng·h/mL | Cmax [1]: 3540 ± 150 ng/mL | AUC(0-t) [1]: 3810 ng·h/mL | AUC(0-inf) [2]: 4490 ng·h/mL | Cmax [2]: 3860 ± 320 ng/mL | AUC(0-t) [2]: 4140 ng·h/mL | Cmax [3]: 3480 ± 370 ng/mL | AUC(0-t) [3]: 4330 ng·h/mL | AUC(0-inf) [4]: 4950 ng·h/mL | Cmax [4]: 3700 ± 140 ng/mL | AUC(0-t) [4]: 4490 ng·h/mL | Tmax [1]: 15 min | Tmax (CSF (lateral ventricle microdialysate), CSF, Group 3: physiological saline alkalinized with NaOH (pH 9.0–9.2) + LVFX 50 mg/kg, n=3): 15 min | Kp (CSF / blood (unbound, microdialysate), AUCu,CSF/AUCu,blood, control group, N=12, read-out: K p,uu,CSF): 0.412 ± 0.024 | MRT [5]: 70.8 min | half-life [5]: 38 ± 11.9 min | MRT [6]: 74 min | half-life [6]: 50.6 ± 8.78 min | AUC(0-inf) [7]: 4680 ng·h/mL | MRT [7]: 76.7 min | half-life [7]: 42.2 ± 5.6 min | MRT [8]: 81.8 min | half-life [8]: 45.8 ± 19.7 min | AUC(0-inf) [9]: 11000 ng·h/mL | MRT [9]: 63.9 min | half-life [9]: 40.5 ± 5.68 min | AUC(0-t) [9]: 10300 ng·h/mL | AUC(0-inf) [10]: 11700 ng·h/mL | MRT [10]: 73.9 min | half-life [10]: 50.5 ± 9.53 min | AUC(0-t) [10]: 10700 ng·h/mL | AUC(0-inf) [11]: 11700 ng·h/mL | MRT [11]: 86.2 min | half-life [11]: 60.6 ± 11.2 min | AUC(0-t) [11]: 10200 ng·h/mL | AUC(0-inf) [12]: 10100 ng·h/mL | MRT [12]: 69.3 min | half-life [12]: 45.3 ± 6.27 min | AUC(0-t) [12]: 9340 ng·h/mL | Tmax [11]: 15 min | Cmax (blood, blood, Group 1: vehicle solution of Tariquidar/Ko143 + LVFX 50 mg/kg, n=3): 10400 ± 1040 ng/mL | Cmax (blood, blood, Group 2: 1.25% NaHCO3 solution + LVFX 50 mg/kg, n=3): 10700 ± 320 ng/mL | Cmax (blood, blood, Group 4: LVFX 50 mg/kg alone, n=3): 9970 ± 590 ng/mL | AUC(0-inf) [13]: 11100 ng·h/mL | Cmax [13]: 10200 ± 700 ng/mL | MRT [13]: 73.3 min | half-life [13]: 49.2 ± 10.6 min | AUC(0-t) [13]: 10200 ng·h/mL | Cmax (blood, pH 9, blood, Group 3: physiological saline alkalinized with NaOH (pH 9.0–9.2) + LVFX 50 mg/kg, n=3): 9780 ± 390 ng/mL | Kp (brain ECF / blood, AUCu,ECF/AUCu,blood, control group, N=12, read-out: K p,uu,ECF): 0.34 ± 0.017 | AUC(0-inf) [14]: 3730 ng·h/mL | Cmax [14]: 2920 ± 520 ng/mL | MRT [14]: 74.1 min | half-life [14]: 39.8 ± 14.3 min | AUC(0-t) [14]: 3480 ng·h/mL | AUC(0-inf) [15]: 3600 ng·h/mL | Cmax [15]: 2720 ± 150 ng/mL | MRT [15]: 84.1 min | half-life [15]: 53.4 ± 9.24 min | AUC(0-t) [15]: 3240 ng·h/mL | AUC(0-inf) [16]: 3940 ng·h/mL | Cmax [16]: 3050 ± 760 ng/mL | MRT [16]: 80.9 min | half-life [16]: 49 ± 17.9 min | AUC(0-t) [16]: 3600 ng·h/mL | AUC(0-inf) [17]: 3820 ng·h/mL | Cmax [17]: 2540 ± 170 ng/mL | MRT [17]: 84 min | half-life [17]: 49.8 ± 20.7 min | AUC(0-t) [17]: 3470 ng·h/mL | AUC(0-inf) [18]: 3770 ng·h/mL | Cmax [18]: 2710 ± 300 ng/mL | MRT [18]: 80.8 min | half-life [18]: 48 ± 14.7 min | AUC(0-t) [18]: 3450 ng·h/mL | Tmax [18]: 15 min | Tmax (blood, Group 1: vehicle solution of Tariquidar/Ko143 + LVFX 50 mg/kg, n=3): 15 min | Tmax (blood, Group 3: physiological saline alkalinized with NaOH (pH 9.0–9.2) + LVFX 50 mg/kg, n=3): 15 min | Tmax (brain ECF, Group 1: vehicle solution of Tariquidar/Ko143 + LVFX 50 mg/kg, n=3): 15 min | Tmax (brain ECF, Group 3: physiological saline alkalinized with NaOH (pH 9.0–9.2) + LVFX 50 mg/kg, n=3): 15 min | AUC(0-inf) [19]: 4550 ng·h/mL | Cmax [19]: 3650 ± 270 ng/mL | MRT [19]: 75.8 min | half-life [19]: 44.1 ± 11.8 min | AUC(0-t) [19]: 4190 ng·h/mL | Tmax [19]: 15 min | difference in LVFX concentration (and AUC value) between brain ECF and CSF (with or without treatment with transporter inhibitors): < 3 fold
